Measured values: patent US9873719B2, “Salt and protease-resistance of antimicrobial peptide and the manufacture thereof” (priority 2013, dated 2018)
Square brackets hold non-standard residues; d marks the D form. Peptide text beside a SMILES is read from it. 2Nal = N[C@@H](Cc1ccc2ccccc2c1)C(=O)O

Assays:
[1] = tested on: Eschericha coli (ATCC 25922), Staphylococcus aureus (ATCC 25923, 29213, and 19636), and Pseudomonas aeruginosa (ATCC 27853 and 9027); test: Salt resistance test: antibacterial activity assay (NCCLS microdilution, MIC90); assay type: cell-based; conditions: for antimicrobial activity: at MHB medium or the high-salt condition, FIG. 1a/1b; for antimicrobial activity compared with reference peptide (S1 or S2-Nal): MHB medium or the high-salt condition, comparison in words; for antimicrobial activity at 300 mM NaCl: FIG. 1b
Text: Antibacterial activity assay was used to determine the antimicrobial activity of S1, Nal-S1, S1-Nal-Nal, S1-Nal-Nal-Nal, S1-W, S1-W-W, S1-K-K-K, S2-Nal, S2-F-Nal, S2-Nal-Nal at different salt concentration. Eschericha coli (ATCC 25922), Staphylococcus aureus (ATCC 25923, 29213, and 19636), and Pseudomonas aeruginosa (ATCC 27853 and 9027) were used in the Example.
Microdilution method of National Committee for Clinical Laboratory Standards (NCCLS) was used to determine the minimal inhibition concentration (MIC). The MIC as used herein is a minimum inhibitory concentration required to inhibit the growth of 90% of organisms (MIC90).
In the Microdilution method, 1 μl of peptide solution (5,000 μg/ml to 78.1 μg/ml) and 99 μl of bacteria suspension were mixed and added into 96 wells plates. After 16 hours of incubation at 37° C., the optical density (O.D.) value at 600 nm was detected by ELISA (Thermo Max, Molecular Devices, Sunnyvale, Calif.). The Muller-Hinton Broth (MHB) medium without peptide and bacterial suspension were used as negative control and positive control, separately. The MIC value means a minimum inhibitory concentration required to inhibit the growth (equal or more than 90%) of bacteria.

[2] = in vitro; assay type: in vitro ADME, bovine
Procedure: Serum stability of the peptides was determined in 25% (v/v) aqueous bovine calf serum (HyClone, cat. AUE-34962). Firstly, peptides were dissolved in serum at a concentration of 150 μg/mL and incubated at 37° C. After 45 min on ice for precipitating serum proteins, the serum was centrifuged at 12,000 g for 10 min at 4° C., and then the supernatants were lyophilized. Remaining amount of the peptides was determined by RP-HPLC.

[3] = tested on: human red blood cells (hRBCs)
Procedure: The hemolysis of peptides was determined by evaluating the effect of peptides on human red blood cells (hRBCs). hRBCs were obtained by washing the heparinized blood with PBS buffer three times, and stored at physiological saline with 10% phosphate buffer. The peptides were dissolved in PBS buffer, and then 50 μl of 10% (v/v) hRBCs was added to the PBS buffer at 37° C. for 1 hour of incubation (the final volume concentration of the hRBCs was 5%). After 1 hour of incubation, the hBRCs were centrifuged, and the hemolysis ratio was determined by detecting the absorbance values at 540 nm using a spectrophotometer. The hemolysis ratio of hRBCs without treatment was defined as 0%, and the hemolysis ratio of hRBCs treated with 1% Triton-X 100 was defined as 100%.

| Compound | antimicrobial activity [1] | degree of protection of the peptides from degradation in bovine calf serum (rank order) [2] | antimicrobial activity compared with reference peptide (S1 or S2-Nal) [1] | hemolytic activity compared with other peptides [3] | antimicrobial activity at 300 mM NaCl [1] | remaining at 8 h, 150 μg/mL ([2]; bovine, serum) [%] |
| --- | --- | --- | --- | --- | --- | --- |
| CC(=O)N[C@@H](CCCCN)C(=O)N[C@@H](CCCCN)C(=O)N[C@@H](Cc1ccc2ccccc2c1)C(=O)N[C@@H](CCCNC(=N)N)C(=O)N[C@@H](CCCCN)C(=O)N[C@@H](Cc1ccc2ccccc2c1)C(=O)N[C@@H](CC(C)C)C(=O)N[C@@H](C)C(=O)N[C@@H](CCCCN)C(=O)N[C@@H](CCCCN)C(N)=O [Nal-S1, KK-Nal-RK-Nal-LAKK] (Ac-KK[2Nal]RK[2Nal]LAKK-NH2; C-terminus assumed) | diminished | S1-Nal-Nal-Nal>S2-Nal-Nal=S2-Nal>S1-Nal-Nal>S1-Nal>S2-F-Nal>S1-KKK>S1>Nal-S1=S1-W>S1-WW |  |  |  |  |
| CC(=O)N[C@@H](CCCCN)C(=O)N[C@@H](CCCCN)C(=O)N[C@@H](Cc1c[nH]c2ccccc12)C(=O)N[C@@H](CCCNC(=N)N)C(=O)N[C@@H](CCCCN)C(=O)N[C@@H](Cc1c[nH]c2ccccc12)C(=O)N[C@@H](CC(C)C)C(=O)N[C@@H](C)C(=O)N[C@@H](CCCCN)C(=O)N[C@@H](CCCCN)C(=O)N[C@@H](Cc1ccc2ccccc2c1)C(N)=O [Peptide S1-Nal, KKWRKWLAKK-Nal] (Ac-KKWRKWLAKK[2Nal]-NH2; C-terminus assumed) |  | S1-Nal-Nal-Nal>S2-Nal-Nal=S2-Nal>S1-Nal-Nal>S1-Nal>S2-F-Nal>S1-KKK>S1>Nal-S1=S1-W>S1-WW | better than S1 |  |  |  |
| CC(=O)N[C@@H](CCCCN)C(=O)N[C@@H](CCCCN)C(=O)N[C@@H](Cc1c[nH]c2ccccc12)C(=O)N[C@@H](CCCNC(=N)N)C(=O)N[C@@H](CCCCN)C(=O)N[C@@H](Cc1c[nH]c2ccccc12)C(=O)N[C@@H](CC(C)C)C(=O)N[C@@H](C)C(=O)N[C@@H](CCCCN)C(=O)N[C@@H](CCCCN)C(=O)N[C@@H](Cc1ccc2ccccc2c1)C(=O)N[C@@H](Cc1ccc2ccccc2c1)C(N)=O [Peptide S1-Nal-Nal, KKWRKWLAKK-Nal-Nal] (Ac-KKWRKWLAKK[2Nal][2Nal]-NH2; C-terminus assumed) | still retained the antimicrobial activities | S1-Nal-Nal-Nal>S2-Nal-Nal=S2-Nal>S1-Nal-Nal>S1-Nal>S2-F-Nal>S1-KKK>S1>Nal-S1=S1-W>S1-WW | better than S1 | higher hemolytic activity than other peptides |  |  |
| CC(=O)N[C@@H](CCCCN)C(=O)N[C@@H](Cc1c[nH]c2ccccc12)C(=O)N[C@@H](Cc1c[nH]c2ccccc12)C(=O)N[C@@H](CCCCN)C(=O)N[C@@H](Cc1ccccc1)C(=O)N[C@@H](Cc1ccc2ccccc2c1)C(N)=O [Peptide S2-F-Nal, KWWK-F-Nal] (Ac-KWWKF[2Nal]-NH2; C-terminus assumed) | diminished | S1-Nal-Nal-Nal>S2-Nal-Nal=S2-Nal>S1-Nal-Nal>S1-Nal>S2-F-Nal>S1-KKK>S1>Nal-S1=S1-W>S1-WW | higher than that of S2-Nal |  | still retained their antimicrobial activities |  |
| CC(=O)N[C@@H](CCCCN)C(=O)N[C@@H](Cc1c[nH]c2ccccc12)C(=O)N[C@@H](Cc1c[nH]c2ccccc12)C(=O)N[C@@H](CCCCN)C(=O)N[C@@H](Cc1ccc2ccccc2c1)C(N)=O [Peptide S2-Nal, KWWK-Nal] (Ac-KWWK[2Nal]-NH2; C-terminus assumed) | diminished | S1-Nal-Nal-Nal>S2-Nal-Nal=S2-Nal>S1-Nal-Nal>S1-Nal>S2-F-Nal>S1-KKK>S1>Nal-S1=S1-W>S1-WW |  |  |  |  |
| CC(=O)N[C@@H](CCCCN)C(=O)N[C@@H](Cc1c[nH]c2ccccc12)C(=O)N[C@@H](Cc1c[nH]c2ccccc12)C(=O)N[C@@H](CCCCN)C(=O)N[C@@H](Cc1ccc2ccccc2c1)C(=O)N[C@@H](Cc1ccc2ccccc2c1)C(N)=O [Peptide S2-Nal-Nal, KWWK-Nal-Nal] (Ac-KWWK[2Nal][2Nal]-NH2; C-terminus assumed) | diminished | S1-Nal-Nal-Nal>S2-Nal-Nal=S2-Nal>S1-Nal-Nal>S1-Nal>S2-F-Nal>S1-KKK>S1>Nal-S1=S1-W>S1-WW | higher than that of S2-Nal |  | still retained their antimicrobial activities |  |
| CC(=O)N[C@@H](CCCCN)C(=O)N[C@@H](CCCCN)C(=O)N[C@@H](Cc1c[nH]c2ccccc12)C(=O)N[C@@H](CCCNC(=N)N)C(=O)N[C@@H](CCCCN)C(=O)N[C@@H](Cc1c[nH]c2ccccc12)C(=O)N[C@@H](CC(C)C)C(=O)N[C@@H](C)C(=O)N[C@@H](CCCCN)C(=O)N[C@@H](CCCCN)C(=O)N[C@@H](Cc1ccc2ccccc2c1)C(=O)N[C@@H](Cc1ccc2ccccc2c1)C(=O)N[C@@H](Cc1ccc2ccccc2c1)C(N)=O [S1-Nal-Nal-Nal, KKWRKWLAKK-Nal-Nal-Nal] (Ac-KKWRKWLAKK[2Nal][2Nal][2Nal]-NH2; C-terminus assumed) | still retained the antimicrobial activities | S1-Nal-Nal-Nal>S2-Nal-Nal=S2-Nal>S1-Nal-Nal>S1-Nal>S2-F-Nal>S1-KKK>S1>Nal-S1=S1-W>S1-WW | better than S1 | higher hemolytic activity than other peptides |  | ~100 |
| Ac-KKWRKWLAKK-NH2 [Peptide S1, Ac-KKWRKWLAKK-NH2] | diminished | S1-Nal-Nal-Nal>S2-Nal-Nal=S2-Nal>S1-Nal-Nal>S1-Nal>S2-F-Nal>S1-KKK>S1>Nal-S1=S1-W>S1-WW |  |  |  |  |
| Ac-KKWRKWLAKKKKK-NH2 (C-terminus assumed) [Peptide S1-K-K-K, KKWRKWLAKKKKK] | diminished | S1-Nal-Nal-Nal>S2-Nal-Nal=S2-Nal>S1-Nal-Nal>S1-Nal>S2-F-Nal>S1-KKK>S1>Nal-S1=S1-W>S1-WW |  |  |  |  |
| Ac-KKWRKWLAKKW-NH2 (C-terminus assumed) [Peptide S1-W, KKWRKWLAKKW] | diminished | S1-Nal-Nal-Nal>S2-Nal-Nal=S2-Nal>S1-Nal-Nal>S1-Nal>S2-F-Nal>S1-KKK>S1>Nal-S1=S1-W>S1-WW |  |  |  |  |
| Ac-KKWRKWLAKKWW-NH2 (C-terminus assumed) [Peptide S1-W-W, KKWRKWLAKKWW] | diminished | S1-Nal-Nal-Nal>S2-Nal-Nal=S2-Nal>S1-Nal-Nal>S1-Nal>S2-F-Nal>S1-KKK>S1>Nal-S1=S1-W>S1-WW |  |  |  |  |
